Experimental data taken from PMC9182007, “Statistical Methods in the Study of Protein Binding and Its Relationship to Drug Bioavailability in Breast Milk” (Molecules, 2022).
Where two headings read alike, the source gives them in different places.

How the values were obtained:
plasma protein = settings: ref DrugBank [7], cited from earlier work
[1] = NP TLC on non-impregnated control plates; format: physicochemical; settings: for CNP (Rf value from the non-impregnated NP plate, control): Table S8, external group; for CNP (Rf, control NP plate): Table S3, non-impregnated NP plate, acetonitrile/acetate buffer pH 7.4/methanol 60:20:20
[2] = HPLC on immobilized artificial membrane column (HPLCIAM); format: physicochemical; settings: for kIAM / log kIAM: Table S9, external group; for log k IAM: Table S5, IAM column, pH 7.4; for k IAM: Table S5, retention factor, IAM column, phosphate buffer pH 7.4/acetonitrile 80:20
[3] = RP TLC on non-impregnated control plates; format: physicochemical; settings: Table S4, non-impregnated RP plate; acetonitrile/acetate buffer pH 7.4/methanol 60:20:20
[4] = biological target: human serum albumin (HSA) (Homo sapiens, UniProt P02768); settings: pH 7.4
[5] = Table S6, external group (n = 38), given as fraction
[6] = Table S1, plasma protein binding given as fraction

human serum albumin (HSA), sequence (P02768 25-609): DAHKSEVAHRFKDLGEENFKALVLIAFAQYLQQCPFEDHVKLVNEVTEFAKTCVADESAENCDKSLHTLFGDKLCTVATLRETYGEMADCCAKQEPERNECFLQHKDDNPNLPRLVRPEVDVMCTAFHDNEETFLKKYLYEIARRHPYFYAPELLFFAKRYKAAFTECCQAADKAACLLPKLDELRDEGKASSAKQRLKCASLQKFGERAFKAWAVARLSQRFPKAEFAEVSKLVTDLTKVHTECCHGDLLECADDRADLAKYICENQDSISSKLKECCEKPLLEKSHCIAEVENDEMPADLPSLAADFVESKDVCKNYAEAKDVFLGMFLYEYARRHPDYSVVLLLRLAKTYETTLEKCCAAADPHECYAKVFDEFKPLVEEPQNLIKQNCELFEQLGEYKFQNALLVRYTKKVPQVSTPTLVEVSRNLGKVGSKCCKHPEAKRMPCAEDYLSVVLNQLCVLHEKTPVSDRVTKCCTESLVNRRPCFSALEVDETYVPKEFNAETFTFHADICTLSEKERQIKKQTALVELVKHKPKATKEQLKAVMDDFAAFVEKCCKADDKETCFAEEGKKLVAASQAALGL

## COc1cccc(C2(O)CCCCC2CN(C)C)c1 (stereo not drawn) [tramadol]
Plasma protein; [5]
  PB: 0.20

## CC1COc2c(N3CCN(C)CC3)c(F)cc3c(=O)c(C(=O)O)cn1c23 (stereo not drawn) [ofloxacin]
Plasma protein; [5]
  PB: 0.32
[1]
  CNP (Rf value from the non-impregnated NP plate, control): 0.24
[2]
  kIAM: 3.07
  log kIAM: 0.49

## O=C(O)c1cn(C2CC2)c2cc(N3CCNCC3)c(F)cc2c1=O [ciprofloxacin]
[1]
  CNP (Rf, control NP plate): 0.11
[3]
  CRP (Rf, control RP plate): 0.38

## CC(C)Cc1ccc(C(C)C(=O)O)cc1 (stereo not drawn) [ibuprofen]
[2]
  log k IAM: -0.07
  k IAM: 0.86

## C[C@H]1COc2c(N3CCN(C)CC3)c(F)cc3c(=O)c(C(=O)O)cn1c23 [levofloxacin]
Plasma protein; [6]
  PB: 0.31
[1]
  CNP (Rf, control NP plate): 0.17
[3]
  CRP (Rf, control RP plate): 0.27
[2]
  log k IAM: -0.04
  k IAM: 0.90

## NS(=O)(=O)c1cc2c(cc1Cl)NCNS2(=O)=O [hydrochlorotiazide]
[2]
  kIAM: 2.01
  log kIAM: 0.30

## CCN(CC)CCCC(C)Nc1ccnc2cc(Cl)ccc12 (stereo not drawn) [chloroquine]
Plasma protein; [5]
  PB: 0.55
[2]
  log kIAM: 0.49

## C=C[C@H]1C[N@@]2CC[C@H]1C[C@H]2[C@H](O)c1ccnc2ccc(OC)cc12 [quinine]
[2]
  kIAM: 3.06
  log kIAM: 0.49

## O=C1Nc2ccc(Cl)cc2C(c2ccccc2)=NC1O (stereo not drawn) [oxazepam]
[2]
  log k IAM: 0.68
  k IAM: 4.78

## CN(C)CCCN1c2ccccc2CCc2ccc(Cl)cc21 [clomipramine]
[2]
  kIAM: 3.05
  log kIAM: 0.48

## CCCc1cc(=O)[nH]c(=S)[nH]1 [propylthiouracil]
Plasma protein; [5]
  PB: 0.82
[2]
  kIAM: 1.51
  log kIAM: 0.18

## Nc1nc2c(ncn2COCCO)c(=O)[nH]1 [aciclovir]
Plasma protein; [6]
  PB: 0.21
[3]
  CRP (Rf, control RP plate): 0.99
[2]
  log k IAM: -1.04
  k IAM: 0.09

## Clc1ccc2c(c1)CCc1cccnc1C2=C1CCNCC1 [desloratidine]
[2]
  log k IAM: 1.70
  k IAM: 50.45

## CCCNCC(O)COc1ccccc1C(=O)CCc1ccccc1 (stereo not drawn) [propafenone]
[1]
  CNP (Rf, control NP plate): 0.57
[3]
  CRP (Rf, control RP plate): 0.56

## C[C@H]1O[C@@H](O[C@H]2[C@@H](O)C[C@H](O[C@H]3[C@@H](O)C[C@H](O[C@H]4CC[C@@]5(C)[C@H](CC[C@@H]6[C@@H]5C[C@@H](O)[C@]5(C)[C@@H](C7=CC(=O)OC7)CC[C@]65O)C4)O[C@@H]3C)O[C@@H]2C)C[C@H](O)[C@@H]1O [digoxin]
[2]
  log k IAM: 0.57
  k IAM: 3.69

## CC(C)c1c(C(=O)Nc2ccccc2)c(-c2ccccc2)c(-c2ccc(F)cc2)n1CC[C@@H](O)C[C@@H](O)CC(=O)O [atorvastatin]
[3]
  CRP (Rf, control RP plate): 0.80

## COc1cc2nc(N3CCN(C(=O)C4COc5ccccc5O4)CC3)nc(N)c2cc1OC (stereo not drawn) [doxazosin]
[3]
  CRP (Rf, control RP plate): 0.75
[2]
  log k IAM: -0.66
  k IAM: 0.22

## CCOC(=O)C1=C(COCCN)NC(C)=C(C(=O)OC)C1c1ccccc1Cl (stereo not drawn) [amlodipine]
[3]
  CRP (Rf, control RP plate): 0.61
[2]
  log k IAM: 2.00
  k IAM: 98.90

## Cc1cnc(NC(=O)C2=C(O)c3ccccc3S(=O)(=O)N2C)s1 [meloxicam]
[2]
  log k IAM: -0.31
  k IAM: 0.49

## CCC(C)(C)C(=O)O[C@H]1C[C@@H](C)C=C2C=C[C@H](C)[C@H](CC[C@@H]3C[C@@H](O)CC(=O)O3)[C@H]21 [simvastatin]
[1]
  CNP (Rf, control NP plate): 0.19
[3]
  CRP (Rf, control RP plate): 0.66

## CC(C)(O)c1ccccc1CC[C@@H](SCC1(CC(=O)O)CC1)c1cccc(/C=C/c2ccc3ccc(Cl)cc3n2)c1 [montelukast]
[1]
  CNP (Rf, control NP plate): 0.95
[3]
  CRP (Rf, control RP plate): 0.70
[2]
  log k IAM: 2.00
  k IAM: 99.10

## CCN(CC)CC#CCOC(=O)C(O)(c1ccccc1)C1CCCCC1 (stereo not drawn) [oxybutinin]
[1]
  CNP (Rf, control NP plate): 0.68
[3]
  CRP (Rf, control RP plate): 0.29
[2]
  log k IAM: 1.70
  k IAM: 49.68

## O=C(O)COCCN1CCN([C@H](c2ccccc2)c2ccc(Cl)cc2)CC1 [levocetrizine]
[2]
  log k IAM: 0.58
  k IAM: 3.82

## Cc1nnc2n1-c1ccc(Cl)cc1C(c1ccccc1)=NC2 [alprazolam]
Plasma protein; [6]
  PB: 0.8
[2]
  log k IAM: 0.50
  k IAM: 3.14

## COc1ccc2cc([C@H](C)C(=O)O)ccc2c1 [naproxen]
[1]
  CNP (Rf, control NP plate): 0.92
[3]
  CRP (Rf, control RP plate): 0.88

## CC(C)(C(=O)O)c1ccc(C(O)CCCN2CCC(C(O)(c3ccccc3)c3ccccc3)CC2)cc1 (stereo not drawn) [fexofenadine]
[1]
  CNP (Rf, control NP plate): 0.61
[3]
  CRP (Rf, control RP plate): 0.85

## C[C@H](CS)C(=O)N1CCC[C@H]1C(=O)O [captopril]
[1]
  CNP (Rf, control NP plate): 0.77
[2]
  log k IAM: -2.19
  k IAM: 0.01

## O=C(O)COC(=O)Cc1ccccc1Nc1c(Cl)cccc1Cl [aceclofenac]
[4]
  k HSA: 55.89
[1]
  CNP (Rf, control NP plate): 0.89
[2]
  log k IAM: 0.42
  k IAM: 2.63

## CC(C(=O)O)c1cccc(C(=O)c2ccccc2)c1 (stereo not drawn) [ketoprofen]
[2]
  log k IAM: -0.71
  k IAM: 0.20

## CCN1CCCC1CNC(=O)c1cc(S(N)(=O)=O)ccc1OC (stereo not drawn) [sulpiride]
Plasma protein; [6]
  PB: 0.4
[1]
  CNP (Rf, control NP plate): 0.27
[3]
  CRP (Rf, control RP plate): 0.85
[2]
  log k IAM: 0.22
  k IAM: 1.66

## gentamycin
[1]
  CNP (Rf value from the non-impregnated NP plate, control): 0.96
[2]
  kIAM: 4.25
  log kIAM: 0.63

## CNCCC(Oc1ccc(C(F)(F)F)cc1)c1ccccc1 (stereo not drawn) [fluoxetine]
Plasma protein; [6]
  PB: 0.945
[1]
  CNP (Rf, control NP plate): 0.68
[3]
  CRP (Rf, control RP plate): 0.54
[2]
  log k IAM: 1.82
  k IAM: 66.64

## COc1cc2c(c(OC)c1OC)-c1ccc(OC)c(=O)cc1[C@@H](NC(C)=O)CC2 [colchicine]
Plasma protein; [5]
  PB: 0.39

## CN1C(=O)C(O)N=C(c2ccccc2)c2cc(Cl)ccc21 (stereo not drawn) [temazepam]
[2]
  log k IAM: 0.83
  k IAM: 6.74

## CC(=O)CC(c1ccc([N+](=O)[O-])cc1)c1c(O)c2ccccc2oc1=O (stereo not drawn) [acenocumarol]
[2]
  log k IAM: -0.27
  k IAM: 0.53

## CCCCc1oc2ccccc2c1C(=O)c1cc(I)c(OCCN(CC)CC)c(I)c1 [amiodarone]
[3]
  CRP (Rf, control RP plate): 0.33

## COCCCC/C(=N\OCCN)c1ccc(C(F)(F)F)cc1 [fluvoxamine]
[1]
  CNP (Rf value from the non-impregnated NP plate, control): 0.34

## CN(C)CCCC1(c2ccc(F)cc2)OCc2cc(C#N)ccc21 (stereo not drawn) [citalopram]
Plasma protein; [5]
  PB: 0.80
[2]
  kIAM: 3.14
  log kIAM: 0.50

## Cn1c(=O)c2c(ncn2C)n(C)c1=O [caffeine]
[1]
  CNP (Rf, control NP plate): 0.82
[2]
  log k IAM: -0.75
  k IAM: 0.18

## Nc1cc(N2CCCCC2)nc(N)[n+]1[O-] [minoxidil]
Plasma protein; [5]
  PB: 0.00
[1]
  CNP (Rf value from the non-impregnated NP plate, control): 0.43
[2]
  kIAM: 1.96
  log kIAM: 0.29

## CC(=O)CC(c1ccccc1)c1c(O)c2ccccc2oc1=O (stereo not drawn) [warfarin]
[2]
  kIAM: 2.76
  log kIAM: 0.44

## CCCCC(=O)N(Cc1ccc(-c2ccccc2-c2nnn[nH]2)cc1)[C@H](C(=O)O)C(C)C [valsartan]
Plasma protein; [6]
  PB: 0.955
[1]
  CNP (Rf, control NP plate): 0.89
[3]
  CRP (Rf, control RP plate): 0.97
[2]
  log k IAM: -1.10
  k IAM: 0.08
